Holding throughout (format): cell-based
For assay [1], the system named is HCT-116 MTAP(-/-)deleted cells. Nature of the assay: Inhibitory activity on proliferation of HCT-116 MTAP(-/-)deleted cells (Cell-Titer Glo). Particulars: Homo sapiens, 144 h, incubated 6 d, 0-1,000 nM. On the procedure:
Materials and cells: HCT-116 MTAP(-/-)deleted cells were purchased from Kyinno Biotechnology (China); RPMI-1640 medium, and fetal bovine serum were purchased from Thermo Fisher (United States); 384-well plates were purchased from PerkinElmer (United States); Cell-Titer Glo kit was purchased from Promega (United States).
Cell culture: HCT116 MTAP(-/-)deleted cells were cultured with RPMI 1640 medium containing 10% fetal bovine serum at 37°C in 5% carbon dioxide. Only cells in the logarithmic growth phase could be used for the test.
(§1) Test of inhibitory activity on cell proliferation: The Cell-Titer Glo kit was used to test the proliferation inhibitory activity of the compounds on HCT-116 MTAP(-/-)deleted cells. The cell concentration was adjusted, rendering that cells were inoculated into a 384-well plate at 40 µL per well and incubated overnight at 37°C and 5% carbon dioxide. 80 nL of the compound was added into each well to reach a final concentration of 0-1,000 nM (starting concentration 1,000 nM, 2.5-fold dilution, 10 points), and the cell plate with 0.2% DMSO content was incubated at 37°C and 5% carbon dioxide for 6 d. 40 µL of Cell-Titer Glo reagent was added to test cell viability.

In assay [2] the test system is HCT-116 wild-type cells. Nature of the assay: Inhibitory activity on proliferation of HCT-116 wild-type cells (Cell-Titer Glo). Particulars: Homo sapiens, 144 h, incubated 6 d, 0-10,000 nM. On the procedure:
Materials and cells: HCT-116 wild-type cells were purchased from Kyinno Biotechnology (China); RPMI-1640 medium, and fetal bovine serum were purchased from Thermo Fisher (United States); 384-well plates were purchased from PerkinElmer (United States); Cell-Titer Glo kit was purchased from Promega (United States).
Cell culture: HCT-116 wild-type cells were cultured in RPMI-1640 medium containing 10% fetal bovine serum at 37°C and 5% carbon dioxide. Only cells in the logarithmic growth phase could be used for the test.
Test of cell proliferation activity: Cell-Titer Glo kit was used to test the proliferation inhibitory activity of the compound on HCT-116 wild-type cells. The cell concentration was adjusted, rendering that cells were inoculated into a 384-well plate at 40 µL per well and incubated overnight at 37°C and 5% carbon dioxide. 80 nL of the compound was added to each well to reach a final concentration of 0-10,000 nM (starting concentration 10,000 nM, 2.5-fold dilution, 10 points), and the cell plate with 0.2% DMSO content was incubated at 37°C and 5% carbon dioxide for 6 d. 40 µL of Cell-Titer Glo reagent was added to test cell viability.

The subject of assay [3] is LU99 MTAP(-/-)deleted cells. Nature of the assay: Inhibitory activity on proliferation of LU99 MTAP(-/-)deleted cells (Cell-Titer Glo). The following applies: Homo sapiens, Lu-99, 144 h, incubated 6 d, 0-1,000 nM. On the procedure: Materials and cells: LU99 MTAP deleted cell line was purchased from Kyinno Biotechnology (China); cell culture medium and fetal bovine serum were purchased from Thermo Fisher Scientific (USA); 384-well plates were purchased from PerkinElmer (USA); Cell-Titer Glo kits were purchased from Promega (USA).
Cell culture: LU99 MTAP(-/-)deleted cells were cultured with medium containing 10% fetal bovine serum at 37°C in 5% carbon dioxide. Only cells in the logarithmic growth phase could be used for the test.
as §1, with “on LU99” for “on HCT-116”, “dioxide. 40” for “dioxide. 80”, “added to” for “added into”

For assay [4], the system named is LU99 MTAP overexpressing cells. Nature of the assay: Inhibitory activity on proliferation of LU99 MTAP overexpressing cells (Cell-Titer Glo). Particulars: Homo sapiens, Lu-99, 144 h, incubated 6 d, 0-10,000 nM. On the procedure: Materials and cells: LU99 MTAP overexpressing cell line was purchased from Kyinno Biotechnology (China); cell culture medium and fetal bovine serum were purchased from Thermo Fisher Scientific (USA); 384-well plates were purchased from PerkinElmer (USA); Cell-Titer Glo kits were purchased from Promega (USA).
Cell culture: LU99 MTAP overexpressing cells were cultured with medium containing 10% fetal bovine serum at 37°C in 5% carbon dioxide. Only cells in the logarithmic growth phase could be used for the test.
Test of inhibitory activity on cell proliferation: The Cell-Titer Glo kit was used to test the proliferation inhibitory activity of the compounds on LU99 MTAP overexpressing cells. The cell concentration was adjusted, rendering that cells were inoculated into a 384-well plate at 40 µL per well and incubated overnight at 37°C and 5% carbon dioxide. 40 nL of the compound was added to each well to reach a final concentration of 0-10,000 nM (starting concentration 10,000 nM, 2.5-fold dilution, 10 points), and the cell plate with 0.2% DMSO content was incubated at 37°C and 5% carbon dioxide for 6 d. 40 µL of Cell-Titer Glo reagent was added to test cell viability.

Data on 16 compounds can be found in EP4803519A1, “NOVEL PRMT5 INHIBITOR AND USE THEREOF” (Shanghai Apeiron Therapeutics Company Limited, priority 2023, dated 2025).

SMILES strings stand for the structures.

Turning to `CN1CCN(c2ccc3c(c2)C(C)(C)OCC3N(C)C(=O)c2ccc3nc(N)c4cnn(C)c4c3c2)CC1` (stereo not shown) [Example 80], the IC50 in assay [1] is 9.4 nM; in assay [2], 3850 nM; in assay [3], 16.8 nM; in assay [4], 3660 nM.
For `CN(C(=O)c1cc2c(cc1Cl)nc(N)c1cnn(C)c12)C1COC(C)(C)c2cc(C(F)(F)F)ccc21` (stereo not shown) [Example 24, 4-amino-7-chloro-N-(1,1-dimethyl-7-(trifluoromethyl)isochroman-4-yl)-N,1-dimethyl-1H-pyrazolo[4,3-c]quinoline-8-carboxamide] the same measures were 15.1 nM, 156 nM, 16.4 nM and 252 nM.
As for `CN(C(=O)c1ccc2nc(N)c3ccncc3c2c1)C1COC(C)(C)c2cc(C(F)(F)F)ccc21` (stereo not shown) [Example 22, 5-amino-N-(1,1-dimethyl-7-(trifluoromethyl)isochroman-4-yl)-N-methylbenzo[c][2,6]naph thyridine-9-carboxamide], the IC50 in assay [1] turned out to be 13.4 nM; in assay [2], 1250 nM; in assay [3], 25.5 nM; in assay [4] it was 771 nM.
Take `CN(C(=O)c1cc2c3c(c(N)nc2cn1)COC3)C1COC(C)(C)c2cc(C(F)(F)F)ccc21` (stereo not shown) [Example 5, 4-Amino-N-(1,1-dimethyl-7-(trifluoromethyl)isochroman-4-yl)-N-methyl-1,3-dihydrofuro[3,4-c][1,7]naphthyridine-8-carboxamide]: the IC50 in assay [1] came out at 28.2 nM; in assay [2] it was 7770 nM; in assay [3], 37.1 nM; in assay [4] it was 4980 nM.
For `CN(C(=O)c1ccc2nc(N)c3c(c2c1)COC3)C1COC(C)(C)c2cc(-c3ccnn3C)ccc21` (stereo not shown) [Example 10, 4-Amino-N-(1,1-dimethyl-7-(1-methyl-1H-pyrazol-5-yl)isochroman-4-yl)-N-methyl-1,3-dihydrofuro[3,4-c]quinoline-8-carboxamide], the IC50 in assay [1] was found to be 10.1 nM; in assay [2], 2060 nM; in assay [3], 18.3 nM; in assay [4], 3740 nM.
As for `Cc1ncc(-c2ccc3c(c2)C(C)(C)OC[C@H]3N(C)C(=O)c2ccc3nc(N)c4cnn(C)c4c3c2)cn1` [Example 34, (S)-4-amino-N-(1,1-dimethyl-7-(2-methylpyrimidin-5-yl)isochroman-4-yl)-N,1-dimethyl-1H-pyrazolo[4,3-c]quinoline-8-carboxamide], the half-inhibitory concentration (IC50) in assay [1] was determined as 8.5 nM; in assay [2], 1620 nM; in assay [3] it was 5.2 nM; in assay [4], 1660 nM.
As to `CN(C(=O)c1ccc2nc(N)c3cnn(C)c3c2c1)[C@@H]1COC(C)(C)c2cc(N3CCn4cncc4C3)ccc21` [Example 86, N-((4S)-7-imidazo[5,1-c]piperazin-7-yl-1,1-dimethylisochroman-4-yl)(4-amino-1-methylpyrazolo[4,5-c]quinolin-8-yl)-N-methylformamide], the IC50 in assay [1] is 21.6 nM; in assay [2], 3790 nM; in assay [3], 31 nM; in assay [4], 7870 nM.
Turning to `CN(C(=O)c1cc2c3c(c(N)nc2cn1)COC3)[C@@H]1COC2(CCC2)c2cc(C(F)(F)F)ccc21` [Example 44, (S)-4-amino-N-methyl-N-(7'-(trifluoromethyl)spiro[cyclobutane-1,1'-isochroman]-4'-yl)-1,3-dihydrofuro[3,4-c][1,7]naphthyridine-8-carboxamide], the IC50 stood at 7.9 nM in assay [1], 837 nM in assay [2], 12.2 nM in assay [3] and 673 nM in assay [4].
Taken in the same sequence, the figures for `CN(C(=O)c1ccc2nc(N)c3cnn(C)c3c2c1)[C@H]1COC(C)(C)c2cc(C(F)(F)F)ccc21` [Example 17, (R)-4-amino-N-(1,1-dimethyl-7-(trifluoromethyl)isochroman-4-yl)-N,1-dimethyl-1H-pyrazolo[4,3-c]quinoline-8-carboxamide] were 140 nM, 5550 nM, 174 nM and 5220 nM.
`CN(C(=O)c1ccc2nc(N)c3c(c2c1)OCC3)C1COC(C)(C)c2cc(C(F)(F)F)ccc21` (stereo not shown) [Example 6, 4-Amino-N-(1,1-dimethyl-7-(trifluoromethyl)isochroman-4-yl)-N-methyl-2,3-dihydrofuro[3,2-c]quinoline-8-carboxamide]: the IC50 in assay [1] was 269 nM; in assay [2], 5950 nM; in assay [3] it was 355 nM; in assay [4] it was 5940 nM.
As to `CN(C(=O)c1ccc2nc(N)c3cnn(C)c3c2c1)[C@@H]1COC(C)(C)c2cc(-c3cncc(C(F)(F)F)c3)ccc21` [Example 41, (S)-4-amino-N-(1,1-dimethyl-7-(5-(trifluoromethyl)pyridin-3-yl)isochroman-4-yl)-N,1-dimethyl-1H-pyrazolo[4,3-c]quinoline-8-carboxamide], the concentration for half-maximal inhibition (IC50) was 4.6 nM in assay [1], 1030 nM in assay [2], 6.1 nM in assay [3] and 1860 nM in assay [4].
With `CN(C(=O)c1cc2c(cc1F)nc(N)c1cnn(C)c12)C1COC(C)(C)c2cc(C(F)(F)F)ccc21` (stereo not shown) [Example 15, 4-Amino-N-(1,1-dimethyl-7-(trifluoromethyl)isochroman-4-yl)-7-fluoro-N,1-dimethyl-1H-pyrazolo[4,3-c]quinoline-8-carboxamide], the IC50 in assay [1] was determined as 13.6 nM; in assay [2], 446 nM; in assay [3], 25.9 nM; in assay [4], 795 nM.
As for `CN(C(=O)c1ccc2nc(N)c3cnn(C)c3c2c1)C1COC(C)(C)c2cc(-c3cnn(C)c3)ccc21` (stereo not shown) [Example 7, 4-amino-N-(1,1-dimethyl-7-(1-methyl-1H-pyrazol-4-yl)isochroman-4-yl)-N,1-dimethyl-1H-pyrazolo[4,3-c]quinoline-8-carboxamide], the IC50 in assay [1] was determined as 5 nM; in assay [2], 2520 nM; in assay [3], 3.6 nM; in assay [4] it was 3100 nM.
As to `CN(C(=O)c1ccc2nc(N)c3c(c2c1)CCOC3)[C@@H]1COC(C)(C)c2cc(C(F)(F)F)ccc21` [Example 23], the IC50 was found to be 99.4 nM in assay [1], 4860 nM in assay [2], 79.5 nM in assay [3] and 3170 nM in assay [4].
For `CC1OCc2c1c(N)nc1ccc(C(=O)N(C)C3COC(C)(C)c4cc(C(F)(F)F)ccc43)cc21` (stereo not shown) [Example 12, 4-Amino-N-(1,1-dimethyl-7-(trifluoromethyl)isochroman-4-yl)-N,3-dimethyl-1,3-dihydrofuro[3,4-c]quinoline-8-carboxamide] the same measures were 21.2 nM, 2610 nM, 32.3 nM and 1990 nM.
Turning to `CN(C(=O)c1ccc2nc(N)c3cnn(C)c3c2c1)C1COC2(CCC2)c2cc(C(F)(F)F)ccc21` (stereo not shown) [Example 30], the IC50 in assay [1] is 5.3 nM; in assay [2], 767 nM; in assay [3] it was 10.9 nM; in assay [4], 862 nM.

In general, IC50 refers to the concentration that inhibits the measured activity by half. Low readings indicate greater potency in that assay, high ones weaker potency in that assay.
